For one experiment, the system named is MDA-MB-231. Kind of experiment: Cellular proliferation assay (Alamar blue), MDA-MB-231. Format: cell-based. The settings on record: Homo sapiens, MDA-MB-231, MDA-MB-231 cells; 10% FCS; 72 h with compound; Alamar blue 24 h; read-out: pIC50 MDA/MB231 (converted). An outline of the steps: (§1)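 Viable cell number is determined by Alamar blue conversion after cells are treated with compound for 72 hours, following 24 hours of growth without compound in 10% FCS. The effect is calculated against control cells.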
(In general: Resazurin is reduced to fluorescent resorufin, in cell work by metabolically active cells.)

In the next experiment the test system is PC3. Kind of experiment: Cellular proliferation assay (Alamar blue), PC3. The class given is cell-based. The settings on record: Homo sapiens, PC-3, PC-3 cells; 10% FCS; 72 h with compound; Alamar blue 24 h; read-out: pIC50 PC-3 (converted). The procedure, abridged: (§2)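 Resazurin-based Alamar blue fluorescence (544/590 nm) measured viable cell number after 72 h compound exposure, following 24 h compound-free seeding, with 10% FCS, 37° C, 5% CO2. Dye incubation lasted 24 h for PC3 and A2780, 6 h for U87-MG, 4 h for HCT-116; results relative to untreated controls.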

The test system of a further experiment is H1299. Nature of the experiment: Cellular proliferation assay (Alamar blue), H1299. Conditions: Homo sapiens, NCI-H1299, H1299 cells; 10% FCS; 72 h with compound; Alamar blue 4 h; read-out: pIC50 H1299 (converted). The class given is cell-based. The procedure, abridged: as §1
Another experiment deals with T1, PLK4 (h) (Homo sapiens, UniProt O00444).
T1 sequence (O00444 1-970): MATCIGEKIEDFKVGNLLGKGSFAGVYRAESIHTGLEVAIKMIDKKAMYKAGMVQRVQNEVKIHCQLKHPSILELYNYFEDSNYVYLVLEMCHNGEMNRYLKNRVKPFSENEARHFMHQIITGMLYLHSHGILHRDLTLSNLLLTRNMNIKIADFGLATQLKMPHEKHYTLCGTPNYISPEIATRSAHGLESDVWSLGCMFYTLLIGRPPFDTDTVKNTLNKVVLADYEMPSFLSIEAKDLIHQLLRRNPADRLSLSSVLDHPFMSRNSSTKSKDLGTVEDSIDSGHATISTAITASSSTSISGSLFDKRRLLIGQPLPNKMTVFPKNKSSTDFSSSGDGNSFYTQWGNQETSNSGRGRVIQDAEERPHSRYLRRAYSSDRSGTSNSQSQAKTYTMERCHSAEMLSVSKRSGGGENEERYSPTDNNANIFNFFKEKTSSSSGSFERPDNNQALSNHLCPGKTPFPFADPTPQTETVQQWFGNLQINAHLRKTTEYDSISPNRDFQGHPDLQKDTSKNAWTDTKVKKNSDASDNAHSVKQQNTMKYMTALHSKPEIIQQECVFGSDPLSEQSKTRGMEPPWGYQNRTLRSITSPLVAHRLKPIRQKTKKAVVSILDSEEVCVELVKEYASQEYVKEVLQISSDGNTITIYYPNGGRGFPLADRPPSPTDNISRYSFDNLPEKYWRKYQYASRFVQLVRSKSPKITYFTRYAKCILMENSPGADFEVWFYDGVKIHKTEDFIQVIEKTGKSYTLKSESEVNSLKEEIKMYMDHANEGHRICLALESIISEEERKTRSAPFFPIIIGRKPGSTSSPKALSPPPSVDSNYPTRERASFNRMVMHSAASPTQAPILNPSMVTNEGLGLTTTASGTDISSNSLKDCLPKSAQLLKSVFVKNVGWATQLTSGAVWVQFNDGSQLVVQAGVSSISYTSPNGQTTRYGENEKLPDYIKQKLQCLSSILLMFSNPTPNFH
Kind of experiment: PLK-4 human kinase scintillation proximity assay (SPA). Conditions: 1 μM ATP, 60 minutes at r.t., read-out: PLK4 pIC50 (converted). The class given is biochemical. An outline of the steps:
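Scintillation proximity read-out: EDTA-stopped reactions were captured on streptavidin SPA beads after PLK4 (19 μg/ml) had phosphorylated 10 μM biotin-peptide for 60 min at room temperature, using 1 μM ATP spiked with 2 nM 33P-ATP in pH 8.0 HEPES buffer.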

Another experiment has as its system A2780. Nature of the experiment: Cellular proliferation assay (Alamar blue), A2780. Format: cell-based. Conditions: Homo sapiens, A2780, A2780 cells; 10% FCS; 72 h with compound; Alamar blue 24 h; read-out: pIC50 A2780 (converted). An outline of the steps:
as §2

The test system of another experiment is HCT-116. Nature of the experiment: Cellular proliferation assay (Alamar blue), HCT-116. The class given is cell-based. Conditions: Homo sapiens; HCT-116 cells; 10% FCS; 72 h with compound; Alamar blue 4 h; read-out: pIC50 HCT-116 (converted). An outline of the steps: as §2
For another experiment, the system named is U87-MG. Nature of the experiment: Cellular proliferation assay (Alamar blue), U87-MG. The settings on record: Homo sapiens, U-87 MG; U87-MG cells; 10% FCS; 72 h with compound; Alamar blue 6 h; read-out: pIC50 U87MG (converted). Format: cell-based. An outline of the steps: as §2

As for `CN1CCCN(C)C(=O)COc2cc(ccc2NC(=O)Nc2cccc(Cl)c2)Nc2ncnc3[nH]cc(c23)C1` [Compound 67], the IC50 was > 10 µM with MDA-MB-231; > 10 µM in the experiment on PC3; 2.51 µM with H1299; 0.0631 µM at PLK4 (h); 2.51 µM with A2780; 0.794 µM in the experiment on HCT-116. For the same compound, the IC50 in the experiment with U87-MG is > 10 µM.

With `CN1CCCN(C)C(=O)COc2cc(ccc2OCC2CC2)Nc2ncnc3[nH]cc(c23)C1` [Compound 68], the IC50 is 2 µM in the experiment on MDA-MB-231; 3.16 µM with PC3; 1.58 µM in the experiment with H1299; 0.0398 µM on PLK4 (h); 0.631 µM in the experiment with A2780; 0.631 µM in the experiment on HCT-116. Besides, in the experiment with U87-MG, the IC50 was 1.58 µM.

Take `COc1cc(NC(=O)COc2ccc3cc2OCC(=O)N(C)CCCN(C)Cc2c[nH]c4ncnc(c24)N3)cc(OC)c1OC` [Compound 71]: the IC50 in the experiment on MDA-MB-231 was 5.01 µM; in the experiment on PC3, 6.31 µM; in the experiment with H1299, 3.98 µM; at PLK4 (h), 0.0794 µM; in the experiment on A2780, 1 µM; in the experiment with HCT-116, 2 µM. Further, the IC50 in the experiment with U87-MG was 2.51 µM.

For `COc1cc2cc(c1OC)CN(C)CC(=O)N(C)CCCc1c[nH]c3ncnc(c13)N2` [Compound 72], the IC50 in the experiment on MDA-MB-231, in the experiment on PC3, in the experiment with H1299, on PLK4 (h), with A2780 and in the experiment on HCT-116 was > 10 µM throughout. The IC50 with U87-MG was > 10 µM.

Consider `CN1CCCN(C)C(=O)COc2cc(ccc2OC(F)F)Nc2ncnc3[nH]cc(c23)C1` [Compound 76], for which the IC50 in the experiment with MDA-MB-231 was > 10 µM; in the experiment with PC3, 2 µM; in the experiment with H1299, 1.26 µM; on PLK4 (h), 0.0398 µM; in the experiment on A2780 it was 0.794 µM; with HCT-116, 2 µM. Besides, the IC50 with U87-MG is 2.51 µM.

On to `CCN(CCOC)CCOc1ccc2cc1OCC(=O)N(C)CCCN(C)Cc1c[nH]c3ncnc(c13)N2` [Compound 77], for which the IC50 was 5.01 µM in the experiment on MDA-MB-231; 3.16 µM in the experiment with PC3; 7.94 µM in the experiment on H1299; 0.0631 µM on PLK4 (h); 2.51 µM with A2780; 3.16 µM in the experiment on HCT-116. Moreover, the IC50 in the experiment with U87-MG was 3.16 µM.

Consider `CN1CCCN(C)C(=O)COc2cc(ccc2OCCO)Nc2ncnc3[nH]cc(c23)C1` [Compound 80], for which the IC50 is > 10 µM in the experiment on MDA-MB-231; > 10 µM in the experiment on PC3; > 10 µM in the experiment with H1299; 0.0631 µM at PLK4 (h); 6.31 µM in the experiment on A2780; > 10 µM with HCT-116. For the same compound, the IC50 in the experiment on U87-MG was > 10 µM.

As for `CN1CCCN(C)C(=O)COc2cc(ccc2N2CCCC2)Nc2ncnc3[nH]cc(c23)C1` [Compound 82], the IC50 is 7.94 µM in the experiment with MDA-MB-231; 3.16 µM in the experiment on PC3; 2 µM in the experiment on H1299; 0.0794 µM at PLK4 (h); 2 µM in the experiment on A2780; 1.26 µM in the experiment on HCT-116. The IC50 in the experiment on U87-MG was 1.58 µM.

Consider `CN1CCN(c2ccc3cc2OCC(=O)N(C)CCCN(C)Cc2c[nH]c4ncnc(c24)N3)CC1` [Compound 84], for which the IC50 with MDA-MB-231 is 3.98 µM; in the experiment on PC3, 2.51 µM; with H1299, 3.16 µM; on PLK4 (h), 0.2 µM; in the experiment on A2780, 0.501 µM; in the experiment on HCT-116, 1 µM. The IC50 with U87-MG is 1.26 µM.

For `CN1CCCN(C)C(=O)COc2cc(ccc2N2CCOCC2)Nc2ncnc3[nH]cc(c23)C1` [Compound 85], the IC50 in the experiment on MDA-MB-231 was 7.94 µM; in the experiment on PC3 it was 5.01 µM; in the experiment with H1299, 2 µM; on PLK4 (h) it was 0.158 µM; in the experiment on A2780, 1.58 µM; with HCT-116 it was 2 µM. The IC50 in the experiment on U87-MG was 2 µM.

Turning to `O=C1CCCCOc2cccc(c2)Nc2ncnc3[nH]cc(c23)CN2CCN1CC2` [Compound 86], the IC50 in the experiment with MDA-MB-231, with PC3, with H1299, on PLK4 (h), in the experiment with A2780 and in the experiment on HCT-116 was > 10 µM in each case. Further, the IC50 with U87-MG is > 10 µM.

Take `COc1cc2cc(c1OC)OCCCCC(=O)N(C)CCN(C)Cc1c[nH]c3ncnc(c13)N2` [Compound 87]: the IC50 in the experiment on MDA-MB-231, in the experiment with PC3, in the experiment on H1299, on PLK4 (h), in the experiment on A2780 and in the experiment on HCT-116 was > 10 µM each time. Moreover, the IC50 with U87-MG is > 10 µM.

For the compound `COc1ccc2cc1OCC(=O)NCC1CN(Cc3c[nH]c4ncnc(c34)N2)C1` [Compound 88], the IC50 was > 10 µM in the experiment on MDA-MB-231; > 10 µM in the experiment on PC3; > 10 µM with H1299; 0.501 µM on PLK4 (h); > 10 µM in the experiment on A2780; 5.01 µM in the experiment on HCT-116. Also, the IC50 in the experiment with U87-MG was 10 µM.

As to `CN1CCN(C)C(=O)COc2cc(ccc2Cl)Nc2ncnc3[nH]cc(c23)C1` [Compound 98], the IC50 with MDA-MB-231 is > 10 µM; with PC3, > 10 µM; in the experiment with H1299 it was > 10 µM; on PLK4 (h) it was 0.1 µM; in the experiment with A2780, > 10 µM; in the experiment with HCT-116 it was 5.01 µM. Also, the IC50 in the experiment on U87-MG was 6.31 µM.

Take `COc1ccc2cc1OCCCCC(=O)N1CCN(CC1)Cc1c[nH]c3ncnc(c13)N2` [Compound 103]: the IC50 is > 10 µM in the experiment with MDA-MB-231; > 10 µM in the experiment with PC3; > 10 µM in the experiment with H1299; 0.631 µM at PLK4 (h); > 10 µM with A2780; > 10 µM in the experiment on HCT-116. Also, the IC50 in the experiment on U87-MG was > 10 µM.

Regarding `O=C1CCCCOc2cc(ccc2Cl)Nc2ncnc3[nH]cc(c23)CN2CCN1CC2` [Compound 104], the IC50 is > 10 µM in the experiment on MDA-MB-231; > 10 µM in the experiment with PC3; > 10 µM with H1299; 2 µM at PLK4 (h); > 10 µM in the experiment with A2780; > 10 µM in the experiment with HCT-116. The IC50 in the experiment with U87-MG is > 10 µM.

On to `COc1ccc2cc1OCCCC(=O)N1CCN(CC1)Cc1c[nH]c3ncnc(c13)N2` [Compound 105], for which the IC50 was > 10 µM with MDA-MB-231; > 10 µM with PC3; > 10 µM in the experiment with H1299; 1 µM on PLK4 (h); > 10 µM in the experiment on A2780; > 10 µM in the experiment with HCT-116. Also, the IC50 with U87-MG was > 10 µM.

Regarding `O=C1CCCOc2cc(ccc2Cl)Nc2ncnc3[nH]cc(c23)CN2CCN1CC2` [Compound 106], the IC50 was > 10 µM in the experiment with MDA-MB-231; > 10 µM in the experiment on PC3; > 10 µM with H1299; 6.31 µM at PLK4 (h); > 10 µM in the experiment on A2780; > 10 µM with HCT-116. In addition, the IC50 in the experiment with U87-MG is > 10 µM.

On to `O=C1CCCOc2cccc(c2)Nc2ncnc3[nH]cc(c23)CN2CCN1CC2` [Compound 107], for which the IC50 with MDA-MB-231 was > 10 µM; in the experiment on PC3 it was > 10 µM; with H1299, > 10 µM; at PLK4 (h), 6.31 µM; in the experiment with A2780, > 10 µM; with HCT-116 it was > 10 µM. Besides, the IC50 with U87-MG is > 10 µM.

(Values after patent US8318731B2, “Pyrrolopyrimidines” (Janssen Pharmaceutica NV, priority 2007, dated 2012).)
